Data as given in patent US6013621A, “Method of treating psychosis and/or hyperactivity” (The Rockfeller University, priority 1997, dated 2000).
Values joined by “and” are separate entries in the source; they are usually repeats but may differ in a detail not shown here. Equal entries are not always repeated. Where two headings read alike, the source gives them in different places.

Assays:
[1] = Begley et al., 1990; cited from earlier work
[2] = prepulse inhibition (PPI) of the startle reflex in mice; format: in vivo
Source text: Chambers that are used to assess startle are housed in a sound-attenuated room with a 60 dB(A) ambient noise level. Such chambers consist of a Plexiglass cylinder 8.2 cm in diameter resting on a 12.5×25.5 cm Plexiglass frame within a ventilated enclosure. Acoustic noise bursts are presented via a speaker mounted 24 cm above the animal. A piezoelectric accelerometer mounted below the Plexiglass frame detects and transduces motion within the cylinder. The delivery of acoustic stimuli is controlled by a microcomputer. Startle amplitude is defined as the average of 100 readings. Background noise and all acoustic stimuli are delivered through a speaker (frequency response between 0.5 and 16 Khz) in a chamber. The test session consists of giving: (i) a startle stimulus alone (a 118 dB [A] 40 ms broad band burst); or (ii) no stimulation; or (iii) a startle stimulus preceded 100 ms earlier by a prepulse (a 70 dB [A] 20 ms broad band burst). The amount of PPI is expressed as the percentage decrease in the startle response caused by the presentation of the prepulse. The amount of PPI is calculated using the following equation: [(startle amplitude caused by pulse alone minus startle amplitude caused by pulse preceded by prepulse)/(startle amplitude caused by pulse alone)]×100.

DARPP-32 phosphorylation = DARPP-32 phosphorylation in rat neostriatal slices (FIG. 9); format: cell-based; conditions: forskolin 10 μM plus FK506 at various concentrations
Description: FIG. 9. FK506 increases the level of DARPP-32 phosphorylation in neostriatal slices. Rat neostriatal slices were incubated in the absence (control) or presence of forskolin (10 μM) alone; or forskolin and FK506 using the various concentrations shown.

[3] = test system: thr^34 -phosphorylated DARPP-32; assay: phospho-DARPP-32 immunoblot in mouse neostriatal slices; format: cell-based; conditions: for increase in the level of phosphorylated DARPP-32 over the already high basal levels: Ca^2+ -free/EGTA medium; for increase in the level of phosphorylated DARPP-32: vs untreated slices
Description: (§1) Preparation and incubation of striatal slices. Male C57BL/6 mice (5-8 weeks old) were sacrificed by decapitation. The brains of the decapitated mice were rapidly removed and placed in ice-cold, oxygenated Krebs-HCO3 -buffer (124 mM NaCl, 4 mM KCl, 26 mM NaHCO3, 1.5 mM CaCl2, 1.25 mM KH2 PO4, 1.5 mM MgSO4 and 10 mM D-glucose, pH 7.4). Coronal slices (350 μm) were prepared using a vibratome. Striatum and nucleus accumbens were dissected from the slices in ice-cold Krebs-HCO3 - buffer. Each slice was placed in a polypropylene incubation tube with 2 ml of fresh Krebs-HCO3 - buffer containing adenosine deaminase (10 μg/ml). The slices were preincubated at 30° C. under constant oxygenation with 95 % O2 /5 % CO2 for 60 minutes. The buffer was replaced with fresh Krebs-HCO3 -buffer after 30 minutes of preincubation. In some experiments, slices were incubated in Ca^2+ -free/EGTA medium (124 mM NaCl, 4 mM KCl, 26 mM NaHCO3, 1.25 mM KH2 PO4, 3.0 mM MgSO4, 10 mM D-glucose and I mM EGTA, pH 7.4) for 20 minutes after 60 minutes of preincubation in Krebs-HCO3 - buffer. Slices were treated with drugs as specified in each experiment.
(§2) Immunoblotting. Frozen tissue samples were sonicated in boiling 1% SDS and boiled for an additional 10 minutes. Small aliquots of the homogenate were retained for protein determination by the BCA protein assay method (Pierce) using bovine serum albumin as a standard. […] The membranes were immunoblotted using a monoclonal antibody (mAb-23; 1:750 dilution) [Snyder et al., (1992)], which is a phosphorylation state-specific antibody raised against a DARPP-32 peptide containing phospho-thr^34, the site phosphorylated by cAMP-dependent protein kinase. A monoclonal antibody (C24-5a; 1:7500 dilution) generated against DARPP-32 (Hemmings and Greengard, 1986), which is not phosphorylation state-specific, was used to estimate the total amount of DARPP-32 in samples.
(§3) Data were analyzed by Student's t -test with significance defined as p<0.05.

[4] = treatment with a D1 antagonist, Karlsson et al., 1995; cited from earlier work
[5] = test system: thr^34 -phosphorylated DARPP-32; assay: phospho-DARPP-32 immunoblot in nucleus accumbens slices; format: cell-based, mouse
Description: as §1, §2, §3

For `C=CC[C@@H]1/C=C(\C)C[C@H](C)C[C@H](OC)[C@H]2O[C@@](O)(C(=O)C(=O)N3CCCC[C@H]3C(=O)O[C@H](/C(C)=C/[C@@H]3CC[C@@H](O)[C@H](OC)C3)[C@H](C)[C@@H](O)CC1=O)[C@H](C)C[C@@H]2OC` [FK506], which “crossing of the blood-brain barrier” value [1] is on record?
Its value is “effectively crosses the blood-brain barrier”.

What about the “effect on the reduction of PPI mediated by quinpirole” value ([2]; D2 agonist and FK506 concurrently, FK506 intravenously 1 to 1000 nM) of the same compound?
Its value is “blocks the reduction of PPI mediated by quinpirole”.

And the “effect on the degree of PPI, FK506 alone” value ([2]; FK506 alone)?
Its value is “can increase the degree of PPI”.

What about the “effect on the level of DARPP-32 phosphorylation” value (DARPP-32 phosphorylation) of the same compound?
The value was “increases DARPP-32 phosphorylation in a dose-dependent manner”.

Which results are given for `C[C@]12N[C@H](Cc3ccccc31)c1ccccc12` [MK801]?
effect on the D2 receptor (quinpirole) decrease of DARPP-32 phosphorylation [3]: not blocked; effect on the basal level of phosphorylated DARPP-32 [3]: increased; level of phospho-DARPP-32, MK801 (+) [3]: 0.247 ± 0.044; effect on the NMDA antagonism of the SKF82526-induced increase of phosphorylated DARPP-32 ([3]; MK801 100 μM, NMDA 100 μM): abolished

What does the source list for `CN[C@H](CC(=O)O)C(=O)O` [NMDA]?
effect on the SKF82526-stimulated level of phosphorylated DARPP-32 [3]: antagonized; decrease in SKF 82526-induced phosphorylation of DARPP-32 ([3]; discussion of Table 2 data): 100%

For `CN1CCc2cc(Cl)c(O)cc2[C@@H](c2ccccc2)C1` [SCH23390], which “effect on the SKF82526-induced DARPP-32 phosphorylation (D1 antagonist)” value [3] is on record?
Its value is “abolished”.

With `CN1CCc2cc(Cl)c(O)cc2[C@H]2c3ccccc3CC[C@@H]21` [SCH39166] as the compound, how does the “effect on the symptoms of schizophrenia” value [4] read?
The value was “does not improve but actually worsens the symptoms of schizophrenia”.

Which “increase in the level of phosphorylated DARPP-32” value ([5]; SKF82526 1 μM) does the source give for `Oc1ccc(C2CNCCc3c2cc(O)c(O)c3Cl)cc1` (centres unmarked) [SKF82526] here?
Its value is “about 7 fold”.

And the “level of phospho-DARPP-32, TTX (+)” value [3]?
Its value is 5.492 ± 0.780.

What about the “level of phospho-DARPP-32, TTX (-)” value [3] of the same compound?
Its value is 3.282 ± 0.575.

What about the “increase in the level of phosphorylated DARPP-32 over the already high basal levels” value [3] of the same compound?
The value was 1.55±0.12 fold.

What about the EC50 ([3]; Mus musculus, dose-dependent increase, read-out: half-maximal effect on DARPP-32 phosphorylation) of the same compound?
Its EC50 is about 100 nM.

What about the “increase in the level of phosphorylated DARPP-32” value ([3]; SKF82526 1 μM alone) of the same compound?
Its value is 5.37±0.99 fold and 9.36±2.06 fold.

What about the “level of phospho-DARPP-32, Cyclosporin A (-), 5 min” value ([3]; Table 1A, SKF82526 1 μM for 5 min, normalized to control) of the same compound?
Its value is 7.14 ± 0.97.

What about the “level of phospho-DARPP-32, Cyclosporin A (-), 30 min” value ([3]; Table 1A, SKF82526 1 μM for 30 min, normalized to control) of the same compound?
The value was 3.07 ± 0.66.

What about the “level of phospho-DARPP-32, Cyclosporin A (+), 5 min” value ([3]; Table 1A, cyclosporin A 5 μM preincubation 60 min, SKF82526 1 μM for 5 min, normalized to control) of the same compound?
The value was 31.6 ± 2.8.

What about the “level of phospho-DARPP-32, Cyclosporin A (+), 30 min” value ([3]; Table 1A, cyclosporin A 5 μM preincubation 60 min, SKF82526 1 μM for 30 min, normalized to control) of the same compound?
The value was 28.0 ± 3.1.

And the “level of phospho-DARPP-32, Cyclosporin A (+)” value ([3]; Table 1C, cyclosporin A 5 μM 60 min, quinpirole 1 μM 5 min preincubation, SKF82526 1 μM 5 min, normalized to control)?
The value was 21.1 ± 2.3.

What about the “level of phospho-DARPP-32, Cyclosporin A (-)” value ([3]; Table 1C, quinpirole 1 μM 5 min preincubation, SKF82526 1 μM 5 min, normalized to control) of the same compound?
Its value is 10.61 ± 2.28.

And the “level of phospho-DARPP-32, MK801 (+)” value ([3]; Table 2, MK801 100 μM from 0 min, NMDA 100 μM or quinpirole 1 μM at 10 min, SKF82526 1 μM at 15 min of 20 min, normalized to SKF82526 alone)?
Its value is 1.115 ± 0.078.

And the “level of phospho-DARPP-32, MK801 (-)” value ([3]; Table 2, NMDA 100 μM or quinpirole 1 μM at 10 min, SKF82526 1 μM at 15 min of 20 min, normalized to SKF82526 alone)?
Its value is 1.000.

Which results are given for `NC1=N[C@H](O)[C@H]2[C@H]3O[C@]4(O)O[C@@H]([C@@H](O)[C@@]2(N1)[C@@H]4O)[C@]3(O)CO` [TTX, tetrodotoxin]?
effect on the SKF82526-stimulated level of phosphorylated DARPP-32 [3]: increased; effect on the basal level of phosphorylated DARPP-32 [3]: increased; effect on the effect of quinpirole on DARPP-32 phosphorylation [3]: failed to reduce; level of phospho-DARPP-32, TTX (+) [3]: 1.000

With `NCCc1ccc(O)c(O)c1` [dopamine] as the compound, how does the “increase in the level of phosphorylated DARPP-32” value ([3]; dopamine 100 μM plus nomifensine 10 μM) read?
The value was 6.64±1.36 fold.

What does the source list for `C=C[C@@]1(C)CC(=O)[C@]2(O)[C@@]3(C)[C@@H](O)CCC(C)(C)[C@@H]3[C@H](O)[C@H](OC(C)=O)[C@@]2(C)O1` [forskolin]?
increase in the level of phosphorylated DARPP-32 over the already high basal levels [3]: 2.04±0.22 fold; increase in the level of phosphorylated DARPP-32 after 5 minutes ([3]; forskolin 10 μM, 8-bromo-cAMP 1 mM): 20 fold

Which “effect on the basal level of phosphorylated DARPP-32” value [3] does the source give for `CCCN1CCC[C@@H]2Cc3n[nH]cc3C[C@H]21` [quinpirole] here?
The value was “decreased”.

What does the source list for `CCN1CCC[C@H]1CNC(=O)c1c(O)c(Cl)cc(Cl)c1OC` [raclopride]?
effect on the quinpirole-induced decrease in SKF82526-stimulated DARPP-32 phosphorylation ([5]; raclopride 1 μM): abolished; effect on the quinpirole-induced decrease in basal DARPP-32 phosphorylation ([5]; raclopride 1 μM): abolished; effect on the basal level of phosphorylated DARPP-32 ([5]; raclopride alone 1 μM): small increase; effect on the basal level of phosphorylated DARPP-32 [3]: slightly increased; effect on the ability of quinpirole to decrease the SKF82526-stimulated level of phosphorylated DARPP-32 ([3]; raclopride 1 μM): dramatically reduced; effect on the ability of quinpirole to decrease the basal level of phosphorylated DARPP-32 ([3]; raclopride 1 μM, quinpirole (100 μM)): blocked

Which “reduction of the level of phosphorylated DARPP-32 seen with SKF82526” value ([3]; thapsigargin 5 μM added 5 min before SKF82526 1 μM for 5 minutes) does the source give for `C/C=C(/C)C(=O)O[C@H]1C(C)=C2[C@H]([C@@H]1OC(=O)CCCCCCC)[C@@](C)(OC(C)=O)C[C@H](OC(=O)CCC)[C@@]1(O)[C@H]2OC(=O)[C@@]1(C)O` [thapsigargin] here?
The value was 46.9±7.7%.
